Test results from patent publication US8119640B2, “Hedgehog pathway antagonists methods of use” (The Board of Trustees of the Leland Stanford Junior …, priority 2008, dated 2012).

What was measured:
[1] = test system: FLAG-Gli1; experiment: Analysis of Gli1 stability; type: cell-based, mouse; settings: Shh-LIGHT2 FLAG-Gli1 cells, 24 h
Description: Analysis of Gli1 stability. […] The cells were maintained under these conditions for 24 h. The cells were subsequently solubilized in lysis buffer (100 μL/well; 50 mM Tris-HCl, pH 7.4, 1% Triton X-100, 250 mM NaCl, 2 mM EDTA, 20 mM NaF, 2 mM Na3VO4, 2 mM 2-mercaptoethanol, and EDTA-free protease inhibitor cocktail (Roche)). This suspension was transferred to a 1.5-mL centrifuge tube and incubated on ice for 30 min, with vortexing every 5 min. The cell lysates were then centrifuged at 20,000×g at 4° C. for 20 min. Supernatants were removed, and a BCA assay was performed to quantify protein levels. 15 μg […] of protein from each sample was solubilized in 1×SDS-PAGE sample buffer (50 mM Tris-HCl, pH 6.8 containing 10% glycerol, 2% SDS, 50 mM DTT, 200 mM 2-mercaptoethanol, and 0.001% bromophenol blue) and boiled for 5 min. The samples were then resolved on a 4-12% Bis-Tris Criterion XT gel and transferred to a PVDF membrane. The membrane was dehydrated with methanol, and then probed with mouse anti-FLAG M2 antibody (Sigma; 1:1,000 dilution in blocking buffer (PBS containing 3% non-fat dried milk and 0.01% Tween 20)) for 90 min. The blots were washed 4×5 min in PBS containing 0.01% Tween 20 and then probed with horseradish peroxidase-conjugated sheep anti-mouse IgG antibody (GE Healthcare; 1:10,000 dilution in blocking buffer) for 1 h. The membranes were washed again 4×3 min in PBS, and immunoreactive bands were detected with a SuperSignal West Dura kit and a ChemiDoc XRS system. To probe for loading controls, the blots were rinsed with PBS, incubated for 1 min in methanol, washed 3×5 min in PBS, and then re-blocked for 1 h in PBS containing 5% non-fat dried milk and 0.1% Tween 20. […] Protein bands were quantified using Quantity One software (Bio-Rad). FLAG-Gli1 and importin β1 bands were normalized to the average band intensities for each experiment. The ratio of these two values was then used to determine the relative amount of FLAG-Gli1 per condition. Results from three independent experiments were then averaged, and normalized to FLAG-Gli1 levels in DMSO-treated cells.

[2] = test system: Math1-cre:SmoM2 cerebellar GNPs; experiment: Math1-cre:SmoM2 cerebellar GNP proliferation; type: cell-based, mice; settings: for Proliferation of SmoM2-expressing GNPs (histone H3 phosphorylation): HPIs 10 μM, cyclopamine 5 μM, 24 h
Description: Analysis of Math1-cre:SmoM2 cerebellar GNP proliferation. To generate Math1-cre:SmoM2 tumors (11), a Math1-cre driver was used to conditionally express an activated Smo (SmoM2) allele. The Gt(ROSA)26Sortm1 (Smo/EYFP)Amc/J) mouse line was obtained from Jackson Laboratory (Bar Harbor, ME). […] Primary cultures from Math1-cre:SmoM2 tumors were established by triturating tumor tissue and plating the dissociated cells onto poly-D-ornithine-coated plates in DMEM-F-12 with N2 supplement, 25 mM KCI, and antibiotics. After culturing the cells for 24 h, they were treated with individual HPIs ([…]) for 24 h. Cell proliferation was then quantified by immunocytochemistry, and the expression of cyclin D1 and Gli1 were assessed by immunoblotting and RT-PCR, respectively. For immunocytochemistry, the primary cultures were fixed in 4% paraformaldehyde for 30 min at room temperature. […] Immunofluorescently stained cultures were imaged using a Nikon Eclipse E600 microscope equipped with a 20×objective. Approximately 30,000 cells were analyzed for each experimental condition. To detect proteins by immunoblotting, non-denaturing lysates were prepared from Math1-cre:SmoM2 cultures using lysate buffer (50 mM HEPES, pH 7.4, containing 150 mM NaCl, 1 mM EDTA, 2.5 mM EGTA, 0.1% Triton X-100, 10% glycerol, and 1 mM DTT), resolved on a 10% SDS-PAGE gel, and transferred onto a PVDF membrane. The membrane was incubated overnight at 4° C. with anti-cyclin D1 (Ab-3, Neomarkers; 1:1,000 dilution) or anti-β-tubulin (T4026, Sigma; 1:5,000 dilution) antibodies. […] For RT-PCR analyses, total RNA from Math1-cre:SmoM2cultures was extracted with TRIzol (Invitrogen) according to the manufacturer's protocol. The RNA was purified further […] with an RNeasy kit (Qiagen), and then reverse-transcribed with an Advantage RT-for-PCR Kit (Clontech) and random hexamer primers. […] Typical PCR conditions were as follows: an initial denaturation at 95° C. for 1 min followed by 28 cycles of denaturation at 94° C. for 45 sec, annealing at 60° C. for 45 sec, extension at 70° C. for 2 min, and a final extension at 72° C. for 7 min. The resulting PCR products were analyzed on 2% agarose gels.

[3] = test system: Hh pathway; experiment: Su(fu)-/- fibroblasts assay for Hh pathway activation; type: cell-based; settings: for % Inhibition Su(fu)-/- MEFs: Gli-dependent firefly luciferase, 15 μM HPI-1, 20 μM HPI-2, 30 μM HPI-3, 30 μM HPI-4; for Toxicity noted in Su(fu)-/- MEFs: printed instead of % inhibition
Description: Su(fu)^−/− fibroblasts assay for Hh pathway activation. […] After 24 h, the cells were transfected with Fugene HD (Roche), 8xGliBS-FL (95 ng/well), phRLSV40 (5 ng/well; Promega), and pEGFP-C1 (300 ng/well as a carrier; Clontech) according to the manufacturer's protocols. […] The resulting firefly and Renilla luciferase activities were measured using a dual luciferase kit and Veritas microplate luminometer.

[4] = target: Smo (Mus musculus, UniProt P56726); experiment: FRET assay for Smo multimerization (Smo-CFP/Smo-YFP); type: cell-based, murine; design: expressed in transfected cells; host or cells: NIH-3T3; settings: 10 μM HPIs; for Shh-induced fold change in Smo-CFP/Smo-YFP FRET: 10 μM cyclopamine, 500 nM SAG
Sequence of Smo (P56726 33-793): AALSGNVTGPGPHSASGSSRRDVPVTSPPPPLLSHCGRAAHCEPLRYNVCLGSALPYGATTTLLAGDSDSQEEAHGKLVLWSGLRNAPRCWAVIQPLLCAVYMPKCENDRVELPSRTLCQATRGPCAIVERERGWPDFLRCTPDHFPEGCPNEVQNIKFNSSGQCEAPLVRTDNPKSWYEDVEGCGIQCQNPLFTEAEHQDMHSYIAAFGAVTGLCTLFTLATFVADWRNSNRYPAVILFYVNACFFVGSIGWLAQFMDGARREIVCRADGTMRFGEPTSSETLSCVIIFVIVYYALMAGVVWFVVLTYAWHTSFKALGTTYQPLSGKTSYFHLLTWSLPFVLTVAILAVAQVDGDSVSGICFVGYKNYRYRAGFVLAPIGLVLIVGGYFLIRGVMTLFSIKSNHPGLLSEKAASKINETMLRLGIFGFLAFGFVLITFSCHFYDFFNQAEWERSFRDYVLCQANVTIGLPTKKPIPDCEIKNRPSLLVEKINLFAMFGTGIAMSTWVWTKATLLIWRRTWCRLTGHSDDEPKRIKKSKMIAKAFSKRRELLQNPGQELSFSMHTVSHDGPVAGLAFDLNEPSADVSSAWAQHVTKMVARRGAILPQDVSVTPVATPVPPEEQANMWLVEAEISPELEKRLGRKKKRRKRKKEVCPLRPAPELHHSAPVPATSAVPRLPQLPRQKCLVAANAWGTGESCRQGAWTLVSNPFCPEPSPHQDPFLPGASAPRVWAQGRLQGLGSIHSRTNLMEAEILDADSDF
Sequence of Smo (P56726 33-793): as above
Description: FRET assay for Smo multimerization. […] The cells were washed with PBS buffer, fixed with 4% paraformaldehyde for 20 min, and mounted on slides in 80% glycerol. Fluorescence signals were acquired with the 100× objective of a Zeiss LSM510 confocal microscope with the following conditions: CFP was excited by 458-nm light and the emission was collected through a BP 480-520-nm filter. YFP was excited by 514-nm light and the emission was collected through a BP 535-590-nm filter. The CFP signal was obtained before and after photobleaching YFP(CFPBP and CFPAP, respectively) using the full power of the 514-nm laser line for 1-2 min at the top half of each cell, leaving the bottom half unbleached as an internal control. The CFP fluorescence intensity was analyzed using Metamorph software (Universal Imaging Corp.), and the energy transfer efficiency was calculated using the formula: FRET %=((CFPAP−CFPBP)/CFPAP)×100. Photobleached areas in 11-19 cells were analyzed for each experimental condition.

COCCOC(=O)C1=C(C)NC2=C(C(=O)CC(c3ccccc3OC)C2)C1c1cccc(O)c1 (mixture of isomers) [Compound 8, 4-(3-Hydroxy-phenyl)-7-(2-methoxy-phenyl)-2-methyl-5-oxo-1,4,5,6,7,8-hexahydro-quinoline-3-carboxylic acid 2-methoxy-ethyl ester]
FLAG-Gli1 stability/levels (immunoblotting) [1]: increased | Cellular levels of cyclin D1 protein and Gli1 transcripts in GNPs [2]: reduced cellular levels of cyclin D1 protein and Gli1 transcripts | Proliferation of SmoM2-expressing GNPs (histone H3 phosphorylation) [2]: significantly inhibited the proliferation | Repression of constitutive Hh pathway activity in Su(fu)-/- fibroblasts [3]: reduce Hh pathway activity in these cells to near-basal levels | % Inhibition Su(fu)-/- MEFs [3]: 80.2% | Shh-induced fold change in Smo-CFP/Smo-YFP FRET [4]: attenuated the fold-change in Smo-CFP/Smo-YFP FRET upon Shh stimulation

N#Cc1cc2c(nc1SCC(=O)Nc1nc3ccccc3s1)CCC2 [Compound 1]
% Inhibition Su(fu)-/- MEFs ([3]; 1440 min): 95.2%

CCCCNC(=N)C(C)c1ccc(CC(C)C)cc1 (centres unmarked) [Compound 2]
% Inhibition Su(fu)-/- MEFs ([3]; 1440 min): 6.26%

Cc1cc(/C=c2\sc3nc4ccccc4n3c2=O)c(C)n1C(C)C [Compound 3]
% Inhibition Su(fu)-/- MEFs ([3]; 1440 min): 92.8%

O=C(Nc1cccc2ccccc12)OC[C@@H]1CCCN2CCCC[C@H]12 [Compound 4]
% Inhibition Su(fu)-/- MEFs ([3]; 1440 min): −7.55%

CCC(C)NS(=O)(=O)c1ccc(Cc2ccc(S(=O)(=O)NC(C)CC)cc2)cc1 (centres unmarked) [Compound 5]
% Inhibition Su(fu)-/- MEFs ([3]; 1440 min): 45.7%

CCOC(=O)c1cc2c(=O)n3ccccc3nc2n(C(C)C)c1=NC(=O)c1cc(OC)cc(OC)c1 [Compound 6]
% Inhibition Su(fu)-/- MEFs ([3]; 1440 min): 90%

CCN1CCCC1CNC(=O)C1CCN(c2nc3c(C)cc(C)cc3s2)CC1 (centres unmarked) [Compound 7]
% Inhibition Su(fu)-/- MEFs ([3]; 1440 min): 32.1%

CCOC(=O)c1cn(-c2ccccc2)nc1-c1ccc(OC)c(OC)c1 [Compound 9]
% Inhibition Su(fu)-/- MEFs ([3]; 1440 min): −26.9%

O=S(=O)(Nc1cc(Cl)c(Cl)cc1Cl)c1ccc(F)cc1 [Compound 10]
% Inhibition Su(fu)-/- MEFs ([3]; 1440 min): 81.8%

OCCNc1nc(N2CCN(c3ccccc3)CC2)nc2ccccc12 [Compound 11]
FLAG-Gli1 stability/levels (immunoblotting) [1]: neither HPI-2 or HPI-3 had any significant effect on FLAG-Gli1 levels | Proliferation of SmoM2-expressing GNPs (histone H3 phosphorylation) [2]: did not block GNP proliferation | % Inhibition Su(fu)-/- MEFs ([3]; 1440 min): 70.7% | Basal Smo-CFP/Smo-YFP FRET levels [4]: decreased basal FRET levels

CC(C)(C)N(CCNS(=O)(=O)c1ccc(-c2cc(C(F)(F)F)no2)s1)Cc1ccco1 [Compound 12]
Toxicity noted in Su(fu)-/- MEFs [3]: Toxic at 20

CN1CCN(C2Cc3ccccc3Sc3ccccc32)CC1 (centres unmarked) [Compound 13]
Toxicity noted in Su(fu)-/- MEFs [3]: Toxic at 15

CCOc1ccc2ncc(C(=O)c3ccc(C)cc3)c(N3CCCC3)c2c1 [Compound 14]
% Inhibition Su(fu)-/- MEFs ([3]; 1440 min): 84.3%

O=C(Nc1nnc(S(=O)(=O)N2CCCCC2)s1)c1cccc(Br)c1 [Compound 15]
% Inhibition Su(fu)-/- MEFs ([3]; 1440 min): 89.1%

CCOc1ccc(CCNc2cnnc3c(Cl)cccc23)cc1OCC [Compound 16]
% Inhibition Su(fu)-/- MEFs ([3]; 1440 min): 62.1%

COc1ccc(OC)c2c1cc1n2CC(C)(C(=O)NC2CCCCCCC2)N(CCN(C)C)C1=O (centres unmarked) [Compound 17]
FLAG-Gli1 stability/levels (immunoblotting) [1]: neither HPI-2 or HPI-3 had any significant effect on FLAG-Gli1 levels | Proliferation of SmoM2-expressing GNPs (histone H3 phosphorylation) [2]: did not block GNP proliferation | Repression of constitutive Hh pathway activity in Su(fu)-/- fibroblasts [3]: reduce Hh pathway activity in these cells to near-basal levels | % Inhibition Su(fu)-/- MEFs ([3]; 1440 min): 89.1% | Basal Smo-CFP/Smo-YFP FRET levels [4]: decreased basal FRET levels | Shh-induced fold change in Smo-CFP/Smo-YFP FRET [4]: attenuated the fold-change in Smo-CFP/Smo-YFP FRET upon Shh stimulation

N#CC(C(=O)c1ccc(Cl)cc1Cl)=C1NC(=O)c2ccccc2N1 [Compound 18]
FLAG-Gli1 stability/levels (immunoblotting) [1]: decreased | Cellular levels of cyclin D1 protein and Gli1 transcripts in GNPs [2]: reduced cellular levels of cyclin D1 protein and Gli1 transcripts | Proliferation of SmoM2-expressing GNPs (histone H3 phosphorylation) [2]: significantly inhibited the proliferation | % Inhibition Su(fu)-/- MEFs ([3]; 1440 min): 58.5% | Basal Smo-CFP/Smo-YFP FRET levels [4]: decreased basal FRET levels
